Like-named read-outs stand apart in the source and are kept apart here.
Experiment: LC/MS retention time of standard compounds and sponge extract (in-house platform)
Assay type: physicochemical
Set-up: RT (retention time): unit not given here
Method: Total 22 compounds and 9 PNPA standards covering a long time-range were purchased as reference standards (Table 1). Each standard compound was experimentally measured with our in-house LC/MS platform with conditions in Supporting Table 1, available as supplementary data at Bioinformatics Advances online.
The resulting extract was dissolved in methanol and subjected to LC/MS analysis with conditions in Supporting Table 1, available as supplementary data at Bioinformatics Advances online, for metabolite profiling.

[1] = purchased PNPA standard, in-house LC/MS platform, conditions in Supporting Table 1 (not shown), retention time related to hydrophobic/hydrophilic substructures, unit not given

Compound	RT (retention time) [1]	further results
Bacitracin	–	RT (retention time): 4.67
α-Amanitin	3.41	–
Gramicidin A	9.19	–
C/C(=C\c1csc(C)n1)[C@@H]1C[C@@H]2O[C@]2(C)CCC[C@H](C)[C@H](O)[C@@H](C)C(=O)C(C)(C)[C@@H](O)CC(=O)O1 [Epothilone B]	7.67	–
[Arg8]-Vasopressin	3.11	–
Jaspamide [Measured compound]	–	Retention order of the measured compound against reference compound 2-Propenyl glucosinolate (binary 1/0) (column 'Measured compound', reference RT 1.74, observed order, no key for 1/0 printed, sheet COCONUT): 1; RT (retention time) of measured compound (compound detected in methanol extract of marine sponge Jaspis splendens, same in-house LC/MS conditions (Supporting Table 1), annotated as Jaspamide via retention order and MS/MS, unit not given): 8.45
C=CC/C(=N/OS(=O)(=O)O)S[C@@H]1O[C@H](CO)[C@@H](O)[C@H](O)[C@H]1O [2-Propenyl glucosinolate]	–	RT (retention time of the reference compound) (LC/MS, in-house platform, reference compound used for retention order comparison, sheet COCONUT): 1.74 min

From publication PMC12643230, “Retention order prediction of peptides containing non-proteinogenic amino acids” (Bioinformatics Advances, 2025)
